This note sets out measurements from patent US20220331217A1, “Hair restructuring association comprising a quaternary ammonium salt and a sulpho-derivative of vegetable fatty acids” (Greengredients S.r.l., priority 2021, published 2022).

A short description of the assay: During breakage test combing (weight of broken hairs after 20 combings). The following applies: bleached strands, treated at 15%, combed 20 times, vs bleached untreated reference. An excerpt: All samples (hair strands) have been combed for 20 times and broken hairs have been weighted (with 0.0001 g accuracy, METTLER TOLEDO EXCELLENCE analytical scale).

The structures appear in SMILES notation.

For the compound `NCCCOCCOCCOCCCN.O=C(O)C=CC(=O)O.O=C(O)C=CC(=O)O` [bis-aminopropyl diglycol dimaleate], the “reduction in broken hairs” value stood at 50.00%.
